Source: PubChem BioAssay AID1918934 (Molecular Pharmacology Branch, DTP, NCI, 2023)

Tested on: 292921-168-R-J2-PDC complex spheroid viability
Test: Anticancer human tumor 292921-168-R-J2-PDC patient-derived pancreatic carcinoma cell line growth inhibition
Settings: for IC50: curve of first compound; for viability, T/C: stronger effect = lower value
Outline: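 Multicellular complex spheroids of tumor cells with human endothelial cells (HUVEC) and mesenchymal stem cells; the LSD1 inhibitor iadademstat was combined with standard-of-care or investigational agents. Top concentration at or near clinical Cmax, half-log dilutions; final DMSO ≤0.25%.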

[1] = second compound 0.1 µM, first compound 0.0316 µM
[2] = second compound 0.1 µM, first compound 0.1 µM
[3] = second compound 0.1 µM, first compound 0.316 µM
[4] = second compound 0.1 µM, first compound 1 µM
[5] = second compound 0.1 µM, first compound 3.16 µM
[6] = second compound 0.1 µM, first compound 10 µM
[7] = second compound 0.316 µM, first compound 0.0316 µM
[8] = second compound 0.316 µM, first compound 0.1 µM
[9] = second compound 0.316 µM, first compound 0.316 µM
[10] = second compound 0.316 µM, first compound 1 µM
[11] = second compound 0.316 µM, first compound 3.16 µM
[12] = second compound 0.316 µM, first compound 10 µM
[13] = second compound 1 µM, first compound 0.0316 µM
[14] = second compound 1 µM, first compound 0.1 µM
[15] = second compound 1 µM, first compound 0.316 µM
[16] = second compound 1 µM, first compound 1 µM
[17] = second compound 1 µM, first compound 3.16 µM
[18] = second compound 1 µM, first compound 10 µM
[19] = second compound 3.16 µM, first compound 0.0316 µM
[20] = second compound 3.16 µM, first compound 0.1 µM
[21] = second compound 3.16 µM, first compound 0.316 µM
[22] = second compound 3.16 µM, first compound 1 µM
[23] = second compound 3.16 µM, first compound 3.16 µM
[24] = second compound 3.16 µM, first compound 10 µM
[25] = second compound 10 µM, first compound 0.0316 µM
[26] = second compound 10 µM, first compound 0.1 µM
[27] = second compound 10 µM, first compound 0.316 µM
[28] = second compound 10 µM, first compound 1 µM
[29] = second compound 10 µM, first compound 3.16 µM
[30] = second compound 10 µM, first compound 10 µM
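Note: seven day compound exposure before luminescent viability read.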
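Throughout, for viability, T/C: 100% = DMSO vehicle control wells.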

Row | Structure (SMILES) | IC50 (second compound 0.1 µM) | IC50 (second compound 0.316 µM) | IC50 (second compound 1 µM) | IC50 (second compound 3.16 µM) | IC50 (second compound 10 µM) | viability, T/C [1] | viability, T/C [2] | viability, T/C [3] | viability, T/C [4] | viability, T/C [7] | viability, T/C [8] | viability, T/C [9] | viability, T/C [10] | viability, T/C [13] | viability, T/C [14] | viability, T/C [15] | viability, T/C [16] | viability, T/C [19] | viability, T/C [20] | viability, T/C [21] | also measured
1 | CC(C)c1c(-c2ccccc2)nc2c(C#N)c[nH]n2c1=O + NC1CCC(NC2CC2c2ccccc2)CC1 | > 10000 nM | > 10000 nM | > 10000 nM | 9720 nM | 1680 nM | 63.4% | 67.2% | 59.7% | 70% | 63.1% | 60.1% | 63.6% | 64.2% | 52.7% | 55.4% | 54.2% | 57.5% | 55.7% | 55.3% | 52.8% | viability, T/C [5]: 61.1%; viability, T/C [6]: 57%; viability, T/C [11]: 64.2%; viability, T/C [12]: 51.3%; viability, T/C [17]: 57.4%; viability, T/C [18]: 51.6%; viability, T/C [22]: 56.1%; viability, T/C [23]: 49%; viability, T/C [24]: 49.9%; viability, T/C [25]: 52.9%; viability, T/C [26]: 53.8%; viability, T/C [27]: 53.2%; viability, T/C [28]: 54.6%; viability, T/C [29]: 45.6%; viability, T/C [30]: 40%
2 | CC1COCCN1c1cc(-c2ccnn2C)c2ccnc(-c3ccn[nH]3)c2n1 (stereo not given) + NC1CCC(NC2CC2c2ccccc2)CC1 | < 3.16 nM | < 3.16 nM | < 3.16 nM | < 3.16 nM | < 3.16 nM | 13% | 16.4% | 18.4% | 19.3% | 12% | 15.7% | 16.9% | 18.3% | 13.5% | 14.2% | 14.8% | 17.2% | 12.2% | 13.5% | 15.3% | viability, T/C (second compound 0.1 µM, first compound 0.00316 µM): 14.1%; viability, T/C (second compound 0.1 µM, first compound 0.01 µM): 12.3%; viability, T/C (second compound 0.316 µM, first compound 0.00316 µM): 15.7%; viability, T/C (second compound 0.316 µM, first compound 0.01 µM): 14.8%; viability, T/C (second compound 1 µM, first compound 0.00316 µM): 14.4%; viability, T/C (second compound 1 µM, first compound 0.01 µM): 15.1%; viability, T/C (second compound 3.16 µM, first compound 0.00316 µM): 15.7%; viability, T/C (second compound 3.16 µM, first compound 0.01 µM): 15.5%; viability, T/C [22]: 16%; viability, T/C (second compound 10 µM, first compound 0.00316 µM): 13.7%; viability, T/C (second compound 10 µM, first compound 0.01 µM): 14%; viability, T/C [25]: 12.3%; viability, T/C [26]: 12.5%; viability, T/C [27]: 14.2%; viability, T/C [28]: 17.3%
3 | CC1COCCN1c1cc(C2(S(C)(=N)=O)CC2)nc(-c2ccnc3[nH]ccc23)n1 (stereo not given) + NC1CCC(NC2CC2c2ccccc2)CC1 | 351 nM | 212 nM | 200 nM | 163 nM | 128 nM | 65.1% | 64.5% | 52.3% | 24.9% | 62.2% | 56.7% | 46.5% | 24.5% | 54.1% | 56.1% | 46.6% | 23.7% | 61% | 51.6% | 44.8% | viability, T/C [5]: 12.7%; viability, T/C [6]: 11.4%; viability, T/C [11]: 14.3%; viability, T/C [12]: 12.1%; viability, T/C [17]: 12.7%; viability, T/C [18]: 11.8%; viability, T/C [22]: 22.6%; viability, T/C [23]: 13.3%; viability, T/C [24]: 12.7%; viability, T/C [25]: 56.3%; viability, T/C [26]: 52%; viability, T/C [27]: 41.2%; viability, T/C [28]: 24.2%; viability, T/C [29]: 14%; viability, T/C [30]: 12.1%
